Values quoted from earlier work as cited in paper PMC4263154 (Journal of Clinical Pharmacology, 2013).
Entries after “also recorded” stand apart in the source; their conditions may differ. Where two headings read alike, the source gives them in different places.

Legend:
[1] = not given; remark: listed apart in the source
[2] = test system: MC4R

## CC(=O)N[C@@H](C)c1cc(Cl)ccc1C1CCN(C(=O)[C@@H]2CN(C(C)(C)C)C[C@H]2c2ccc(F)cc2F)CC1 [MK-0493]
Phase 1 and 2 clinical trials
  effect on body weight and energy intake: failed to demonstrate effect; also recorded: lack of efficacy
Clinical trial
  erectogenic effect: failed to demonstrate the same effect

## melanotan-II
[1]; females with sexual behavior disorders
  sexual arousal: arousal
[1]; males with erectile dysfunction
  erectogenic activity: erectogenic activity
[2]; MC4R knock-out mice
  effect on food intake or energy expenditure: no effect
[2]; wild-type mice
  effect on food intake or energy expenditure: did exert these effects
